Legend:
Assay type in all cases: cell-based
[1] = target: T1, TYK2 (Homo sapiens, UniProt P29597); experiment: TYK2 degradation MSD assay in OCI-LY10 cells; set-up: endogenous in cells; host or cells: EBV-B cells; conditions: 4 to 24 hours incubation, read-out: TYK2 MSD DC50 rating in OCI-LY10
Method in brief: (§1)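 Cells (0.4 million per well) were treated with a 9-point, 1:3 compound series from a top concentration of 1 to 10 μM for 4 to 24 hours at 37° C, then lysed in RIPA with protease/phosphatase inhibitors. Remaining TYK2 was quantified by sandwich MSD immunoassay; DC50 came from four-parameter nonlinear fits.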

[2] = target: T1, TYK2; experiment: TYK2 degradation MSD assay in human PBMC cells; set-up: endogenous in cells; host or cells: human PBMC; conditions: 4 to 24 hours incubation, read-out: TYK2 MSD DC50 rating in human PBMC
Method in brief: as §1

[3] = target: T1, TYK2; experiment: TYK2 degradation MSD assay in EBV-B cells; set-up: endogenous in cells; host or cells: EBV-B cells; conditions: 4 to 24 hours incubation, read-out: TYK2 MSD DC50 rating in EBV-B
Method in brief: as §1

T1 sequence (P29597 whole entry): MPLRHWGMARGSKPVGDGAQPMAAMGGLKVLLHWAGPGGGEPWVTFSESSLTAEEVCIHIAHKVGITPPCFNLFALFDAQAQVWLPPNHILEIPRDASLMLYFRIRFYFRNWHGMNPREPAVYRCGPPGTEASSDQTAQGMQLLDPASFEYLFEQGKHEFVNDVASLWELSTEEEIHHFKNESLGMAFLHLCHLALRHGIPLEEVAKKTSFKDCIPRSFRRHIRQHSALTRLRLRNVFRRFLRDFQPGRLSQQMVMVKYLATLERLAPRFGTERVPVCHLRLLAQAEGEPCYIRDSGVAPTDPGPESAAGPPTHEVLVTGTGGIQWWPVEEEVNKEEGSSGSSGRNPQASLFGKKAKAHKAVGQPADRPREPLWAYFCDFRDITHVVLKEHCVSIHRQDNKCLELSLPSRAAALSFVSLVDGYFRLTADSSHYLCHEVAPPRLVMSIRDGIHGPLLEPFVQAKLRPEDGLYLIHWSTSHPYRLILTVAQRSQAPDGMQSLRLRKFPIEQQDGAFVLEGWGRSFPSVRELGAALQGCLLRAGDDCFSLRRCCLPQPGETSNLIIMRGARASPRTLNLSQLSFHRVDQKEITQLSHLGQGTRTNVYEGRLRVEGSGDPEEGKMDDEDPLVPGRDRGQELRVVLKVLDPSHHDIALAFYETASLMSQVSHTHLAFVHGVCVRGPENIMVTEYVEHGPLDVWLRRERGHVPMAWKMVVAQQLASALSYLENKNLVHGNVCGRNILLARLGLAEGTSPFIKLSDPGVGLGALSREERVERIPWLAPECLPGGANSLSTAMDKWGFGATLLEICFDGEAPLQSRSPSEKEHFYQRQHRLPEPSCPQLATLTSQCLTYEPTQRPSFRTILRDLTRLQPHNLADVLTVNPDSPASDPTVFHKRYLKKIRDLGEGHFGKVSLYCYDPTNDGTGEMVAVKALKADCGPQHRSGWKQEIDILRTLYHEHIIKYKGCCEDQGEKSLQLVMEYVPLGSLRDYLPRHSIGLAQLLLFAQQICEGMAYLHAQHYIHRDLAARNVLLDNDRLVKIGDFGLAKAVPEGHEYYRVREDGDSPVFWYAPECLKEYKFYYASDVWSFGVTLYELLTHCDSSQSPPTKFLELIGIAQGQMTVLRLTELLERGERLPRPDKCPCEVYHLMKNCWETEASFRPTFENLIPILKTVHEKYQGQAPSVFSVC

| SMILES | DC50 [1] | DC50 [2] | DC50 [3] |
| --- | --- | --- | --- |
| CNc1cc(Nc2cccn(-c3ccc(CN4CCN(c5ccc(-c6ccc7c(c6)n(C)c(=O)n7C6CCC(=O)NC6=O)cc5)CC4)cn3)c2=O)nn2c(C(=O)N[C@@H]3C[C@@H]3F)cnc12 (stereo partly drawn) [Example K495] | < 1 nM | > 100 nM | > 100 nM |
| CNc1cc(Nc2cccn(-c3ccc(C(=O)NCCCCc4cncc(N5CCC[C@H](C(=O)Nc6ccc(=O)n(CC(=O)O)c6)C5)c4)cn3)c2=O)nn2c(C(=O)N[C@@H]3C[C@@H]3F)cnc12 [Example K561] | > 100 nM | > 100 nM | > 100 nM |
| CNc1cc(N2CCc3c(-c4cc(N5CCN(c6ccc7c(c6)n(C)c(=O)n7C6CCC(=O)NC6=O)CC5)ccn4)cccc32)nn2c(C(=O)C[C@@H]3C[C@@H]3F)cnc12 (stereo partly drawn) [Example K652] | > 100 nM | > 100 nM | > 100 nM |
| CNc1cc(N2CCc3c(-c4ccc(CN5CCC(N6CCN(C(=O)c7ccc(Cl)c(N8CCC(=O)NC8=O)c7)CC6)CC5)cn4)cccc32)nn2c(C(=O)N[C@@H]3C[C@@H]3F)cnc12 [Example K559] | 1 to 10 nM | > 100 nM | > 100 nM |
| CNC(=O)c1cnc(Nc2ccc(CN3CCC4(CC3)CC(Cc3ccc5c(c3)n(C)c(=O)n5C3CCC(=O)NC3=O)C4)cn2)cc1Nc1cccc(-c2ncc(F)cn2)c1OC (stereo not drawn) [Example K144] | > 100 nM | < 1 nM | < 1 nM |
| CNc1cc(-c2ccc(CN3CCN(c4ccc(-c5ccc6c(c5)n(C)c(=O)n6C5CCC(=O)NC5=O)cc4)CC3)cc2)nn2c(C(=O)N[C@@H]3C[C@@H]3F)cnc12 (stereo partly drawn) [Example K565] | > 100 nM | > 100 nM | > 100 nM |
| CNc1cc(N2CCc3c(-c4ccc(CN5CC(C6CCN(C(=O)c7ccc(Cl)c(N8CCC(=O)NC8=O)c7)CC6)C5)cn4)cccc32)nn2c(C(=O)N[C@@H]3C[C@@H]3F)cnc12 [Example K525] | < 1 nM | > 100 nM | > 100 nM |
| CNC(=O)c1cnc(Nc2ccc(CN(C)C3CCCN(c4ccc5c(c4)n(C)c(=O)n5C4CCC(=O)NC4=O)C3)cn2)cc1Nc1cccc(-c2ncc(F)cn2)c1OC (stereo not drawn) [Example K160] | > 100 nM | > 100 nM | < 1 nM |
| CNc1cc(Nc2cccc(CN3CCN(c4ccc5c(c4)n(C)c(=O)n5C4CCC(=O)NC4=O)CC3)c2)nn2c(C(=O)NC3CC3)cnc12 (stereo not drawn) [Example K591] | > 100 nM | > 100 nM | > 100 nM |
| CNc1cc(Nc2cccc(-c3ccc(C(=O)N4CCN(CC5CCN(c6ccc(-c7ccc8c(c7)n(C)c(=O)n8C7CCC(=O)NC7=O)cc6)CC5)CC4)cn3)c2OC)nn2c(C(=O)N[C@@H]3C[C@@H]3F)cnc12 (stereo partly drawn) [Example K628] | 1 to 10 nM | > 100 nM | > 100 nM |
| CNc1cc(N2CCc3c(-c4ccc(CN5CCC6(CC5)CCN(c5ccc7c(c5)n(C)c(=O)n7C5CCC(=O)NC5=O)CC6)cn4)cccc32)nn2c(C(=O)N[C@@H]3C[C@@H]3F)cnc12 (mixture of isomers) [Example K544] | < 1 nM | > 100 nM | > 100 nM |
| CNc1cc(Nc2cccc(CN3CCC(OCC#Cc4cccc5c4n(C)c(=O)n5C4CCC(=O)NC4=O)CC3)c2)nn2c(C(=O)NC3CC3)cnc12 (stereo not drawn) [Example K595] | 1 to 10 nM | > 100 nM | > 100 nM |
| CNc1cc(Nc2cccc(-c3ccc(CN4CCN(c5ccc(-c6ccc7c(c6)n(C)c(=O)n7C6CCC(=O)NC6=O)cc5)CC4)cn3)c2)nn2c(C(=O)NC3CC3OC)cnc12 (stereo not drawn) [Example K482] | 1 to 10 nM | > 100 nM | > 100 nM |
| CNc1cc(Nc2cccn(-c3ccc(C(=O)N4CC5(CN(CCC#Cc6ccc7c(c6)n(C)c(=O)n7C6CCC(=O)NC6=O)CCO5)C4)cn3)c2=O)nn2c(C(=O)N[C@@H]3C[C@@H]3F)cnc12 (stereo partly drawn) [Example K420] | < 1 nM | > 100 nM | > 100 nM |
| CNc1cc(Nc2cccc(N3CCN(CC4CCN(c5ccc(-c6ccc7c(c6)n(C)c(=O)n7C6CCC(=O)NC6=O)cc5)CC4)CC3)c2)nn2c(C(=O)N[C@@H]3C[C@@H]3F)cnc12 (stereo partly drawn) [Example K466] | > 100 nM | > 100 nM | < 1 nM |
| CNc1cc(Nc2cccn(-c3cc(C(=O)NCCCCCCCCc4ccc5c(c4)n(C)c(=O)n5C4CCC(=O)NC4=O)ccn3)c2=O)nn2c(C(=O)N[C@@H]3C[C@@H]3F)cnc12 (stereo partly drawn) [Example K231] | > 100 nM | < 1 nM | > 100 nM |
| CNC(=O)c1cnc(Nc2ccc(C(=O)NCCCCc3cccc4c3n(C)c(=O)n4C3CCC(=O)NC3=O)cn2)cc1Nc1cccn(C)c1=O (stereo not drawn) [Example K189] | 10 to 100 nM | 10 to 100 nM | > 100 nM |
| CNc1cc(-c2ccc(C(=O)NCCCCCCc3cccc4c3n(C)c(=O)n4C3CCC(=O)NC3=O)cc2)nn2c(C(=O)N[C@@H]3C[C@@H]3F)cnc12 (stereo partly drawn) [Example K300] | > 100 nM | > 100 nM | > 100 nM |
| CNc1cc(N2CCc3c(-c4cc(N5CCN(CC6CCN(c7cccc8c7n(C)c(=O)n8C7CCC(=O)NC7=O)CC6)CC5)ccn4)cccc32)nn2c(C(=O)NC3CC3F)cnc12 (stereo not drawn) [Example K656] | 1 to 10 nM | > 100 nM | > 100 nM |
| CNc1cc(Nc2cccn(-c3ccc(C(=O)N4CCN(c5ccc(-c6ccc7c(c6)n(C)c(=O)n7C6CCC(=O)NC6=O)cn5)C(=O)C4)cn3)c2=O)nn2c(C(=O)N[C@@H]3C[C@@H]3F)cnc12 (stereo partly drawn) [Example K378] | > 100 nM | > 100 nM | < 1 nM |
| CNc1cc(Nc2cccc(-c3ccc(CNCc4ccc(N5CCC(N6CCC(c7ccc8c(c7)n(C)c(=O)n8C7CCC(=O)NC7=O)C6)CC5)cc4)cn3)c2)nn2c(C(=O)N[C@@H]3C[C@@H]3F)cnc12 (stereo partly drawn) [Example K461] | 1 to 10 nM | > 100 nM | > 100 nM |
| CNc1cc(N2CCc3c(CN4CCC(CN5CCN(c6ccc7c(c6)n(C)c(=O)n7C6CCC(=O)NC6=O)CC5)CC4)cccc32)nn2c(C(=O)N[C@@H]3C[C@@H]3F)cnc12 (stereo partly drawn) [Example K634] | < 1 nM | > 100 nM | > 100 nM |
| CNc1cc(Nc2cccn(-c3ccc(C(=O)N4CCN(CC#Cc5ccc6c(c5)n(C)c(=O)n6C5CCC(=O)NC5=O)CC4)cn3)c2=O)nn2c(C(=O)N[C@@H]3C[C@@H]3F)cnc12 (stereo partly drawn) [Example K417] | > 100 nM | > 100 nM | > 100 nM |
| Cn1c(=O)n(C2CCC(=O)NC2=O)c2ccc(CCCCNC(=O)c3ccccc3Nc3ccc4ncc(C(=O)N[C@@H]5C[C@@H]5F)n4n3)cc21 (stereo partly drawn) [Example K326] | > 100 nM | > 100 nM | > 100 nM |
| CNc1cc(Nc2cccc(-c3ccc(CN4CCN(CC#Cc5cccc6c5n(C)c(=O)n6C5CCC(=O)NC5=O)CC4)cn3)c2)nn2c(C(=O)N[C@@H]3C[C@@H]3F)cnc12 (stereo partly drawn) [Example K432] | < 1 nM | > 100 nM | > 100 nM |
| CNC(=O)c1cnc(Nc2ccc(CN3CC4(CCN(c5cccc6c5n(C)c(=O)n6C5CCC(=O)NC5=O)CC4)C3)cn2)cc1Nc1cccc(-c2ncc(F)cn2)c1OC (stereo not drawn) [Example K150] | > 100 nM | < 1 nM | < 1 nM |
| CNc1cc(-c2cnn(C3CCN(C(=O)NCCCCCCc4cccc5c4n(C)c(=O)n5C4CCC(=O)NC4=O)CC3)c2)nn2c(C(=O)N[C@@H]3C[C@@H]3F)cnc12 (stereo partly drawn) [Example K312] | > 100 nM | > 100 nM | > 100 nM |

From patent US20250051338A1, “TYK2 DEGRADERS AND USES THEREOF” (Kymera Therapeutics, Inc., priority 2021, published 2025)
